Source: the Kinase Knowledgebase extract (Sharma et al. 2016)

Experiments:
[1] = target: PIK3CB (Human) (UniProt P42338); experiment: Enzyme Assay
[2] = target: PIK3CA (human) (UniProt P42336); experiment: Enzyme Assay
[3] = target: PIK3CD (Human) (UniProt O00329); experiment: Enzyme Assay
[4] = target: PIK3CG (human) (UniProt P48736); experiment: Enzyme Assay
[5] = target: PIK3CD (Human) (UniProt O00329); experiment: Cell-Based Assay; conditions: raji

PIK3CD (Human), sequence (O00329 whole entry, looked up): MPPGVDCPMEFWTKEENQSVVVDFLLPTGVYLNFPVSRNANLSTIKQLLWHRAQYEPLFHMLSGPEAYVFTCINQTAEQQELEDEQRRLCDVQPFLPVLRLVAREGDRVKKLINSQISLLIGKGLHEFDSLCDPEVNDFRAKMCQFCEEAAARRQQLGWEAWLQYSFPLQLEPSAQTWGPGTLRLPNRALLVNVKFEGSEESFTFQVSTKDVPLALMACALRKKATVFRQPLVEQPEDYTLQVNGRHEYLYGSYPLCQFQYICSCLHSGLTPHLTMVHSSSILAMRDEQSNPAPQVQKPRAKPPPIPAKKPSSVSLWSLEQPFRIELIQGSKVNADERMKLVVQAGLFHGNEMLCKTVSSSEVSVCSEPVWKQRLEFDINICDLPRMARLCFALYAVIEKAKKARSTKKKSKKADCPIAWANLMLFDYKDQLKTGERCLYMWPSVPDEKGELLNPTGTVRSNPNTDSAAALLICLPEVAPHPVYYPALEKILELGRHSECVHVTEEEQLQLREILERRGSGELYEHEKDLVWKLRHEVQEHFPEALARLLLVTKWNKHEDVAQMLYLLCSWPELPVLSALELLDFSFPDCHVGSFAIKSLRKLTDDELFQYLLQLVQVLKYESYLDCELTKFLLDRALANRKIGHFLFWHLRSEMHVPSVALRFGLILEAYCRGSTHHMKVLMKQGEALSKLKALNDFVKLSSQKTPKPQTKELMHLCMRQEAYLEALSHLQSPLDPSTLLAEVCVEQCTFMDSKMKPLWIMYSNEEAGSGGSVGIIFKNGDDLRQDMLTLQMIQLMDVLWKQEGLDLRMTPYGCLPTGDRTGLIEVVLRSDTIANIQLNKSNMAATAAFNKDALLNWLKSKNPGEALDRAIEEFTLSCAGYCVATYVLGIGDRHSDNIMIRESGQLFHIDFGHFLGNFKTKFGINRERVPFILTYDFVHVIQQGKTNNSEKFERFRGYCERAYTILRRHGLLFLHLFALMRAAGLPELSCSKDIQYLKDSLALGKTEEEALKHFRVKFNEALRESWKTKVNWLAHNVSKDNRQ
PIK3CA (human), sequence (P42336 whole entry, looked up): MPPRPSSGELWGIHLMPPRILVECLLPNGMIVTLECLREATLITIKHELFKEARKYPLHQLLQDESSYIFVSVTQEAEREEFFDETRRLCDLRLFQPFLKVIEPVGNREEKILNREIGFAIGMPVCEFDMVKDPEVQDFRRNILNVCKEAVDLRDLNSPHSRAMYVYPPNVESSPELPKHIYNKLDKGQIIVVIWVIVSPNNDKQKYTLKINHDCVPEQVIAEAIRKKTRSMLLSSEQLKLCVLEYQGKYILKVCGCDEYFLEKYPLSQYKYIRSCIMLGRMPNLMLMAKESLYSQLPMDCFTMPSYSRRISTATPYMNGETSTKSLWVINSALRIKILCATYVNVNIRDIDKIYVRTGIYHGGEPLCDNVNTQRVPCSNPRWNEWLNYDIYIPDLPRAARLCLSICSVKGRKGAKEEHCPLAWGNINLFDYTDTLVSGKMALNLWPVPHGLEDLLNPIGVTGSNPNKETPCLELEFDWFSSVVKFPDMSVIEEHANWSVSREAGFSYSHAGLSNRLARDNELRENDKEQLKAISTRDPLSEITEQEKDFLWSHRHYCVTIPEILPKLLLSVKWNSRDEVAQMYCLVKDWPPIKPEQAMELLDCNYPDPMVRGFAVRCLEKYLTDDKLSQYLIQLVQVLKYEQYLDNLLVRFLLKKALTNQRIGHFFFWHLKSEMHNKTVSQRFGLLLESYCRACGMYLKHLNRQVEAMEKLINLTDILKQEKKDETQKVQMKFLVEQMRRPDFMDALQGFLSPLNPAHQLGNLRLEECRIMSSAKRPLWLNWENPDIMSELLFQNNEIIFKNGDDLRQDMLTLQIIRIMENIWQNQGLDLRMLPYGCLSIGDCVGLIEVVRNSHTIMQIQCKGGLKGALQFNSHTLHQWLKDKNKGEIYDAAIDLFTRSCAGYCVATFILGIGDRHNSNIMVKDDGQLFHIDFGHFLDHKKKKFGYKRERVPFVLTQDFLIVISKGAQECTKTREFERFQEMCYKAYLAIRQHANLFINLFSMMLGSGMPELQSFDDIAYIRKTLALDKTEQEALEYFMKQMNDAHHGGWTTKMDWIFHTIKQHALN
PIK3CB (Human), sequence (P42338 whole entry, looked up): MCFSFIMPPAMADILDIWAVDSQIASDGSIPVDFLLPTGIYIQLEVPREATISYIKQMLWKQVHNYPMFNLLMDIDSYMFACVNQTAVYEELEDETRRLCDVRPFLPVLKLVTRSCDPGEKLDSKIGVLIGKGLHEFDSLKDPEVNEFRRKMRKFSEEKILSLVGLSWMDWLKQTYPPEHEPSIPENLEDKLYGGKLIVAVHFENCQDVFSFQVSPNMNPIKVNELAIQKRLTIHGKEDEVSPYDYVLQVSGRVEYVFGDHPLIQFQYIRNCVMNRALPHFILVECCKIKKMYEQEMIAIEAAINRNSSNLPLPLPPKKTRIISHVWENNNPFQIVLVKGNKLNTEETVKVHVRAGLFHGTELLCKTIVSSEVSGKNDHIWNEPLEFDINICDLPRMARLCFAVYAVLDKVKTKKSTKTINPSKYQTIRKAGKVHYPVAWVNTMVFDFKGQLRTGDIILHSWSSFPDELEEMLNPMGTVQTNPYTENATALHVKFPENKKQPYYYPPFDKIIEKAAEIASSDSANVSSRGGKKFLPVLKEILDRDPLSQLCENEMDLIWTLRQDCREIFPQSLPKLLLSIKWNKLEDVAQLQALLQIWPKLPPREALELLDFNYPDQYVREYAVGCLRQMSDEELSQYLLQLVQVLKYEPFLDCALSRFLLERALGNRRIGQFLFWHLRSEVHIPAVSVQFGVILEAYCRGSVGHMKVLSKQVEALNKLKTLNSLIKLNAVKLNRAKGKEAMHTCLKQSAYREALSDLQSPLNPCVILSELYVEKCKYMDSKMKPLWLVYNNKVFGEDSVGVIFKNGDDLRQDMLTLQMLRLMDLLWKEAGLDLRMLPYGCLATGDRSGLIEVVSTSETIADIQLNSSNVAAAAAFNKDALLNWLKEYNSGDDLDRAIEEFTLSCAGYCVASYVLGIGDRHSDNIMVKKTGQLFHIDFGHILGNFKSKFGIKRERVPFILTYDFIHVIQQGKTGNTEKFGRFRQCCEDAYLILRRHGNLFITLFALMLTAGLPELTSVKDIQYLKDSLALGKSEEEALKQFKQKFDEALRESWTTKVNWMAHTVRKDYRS
PIK3CG (human), sequence (P48736 whole entry, looked up): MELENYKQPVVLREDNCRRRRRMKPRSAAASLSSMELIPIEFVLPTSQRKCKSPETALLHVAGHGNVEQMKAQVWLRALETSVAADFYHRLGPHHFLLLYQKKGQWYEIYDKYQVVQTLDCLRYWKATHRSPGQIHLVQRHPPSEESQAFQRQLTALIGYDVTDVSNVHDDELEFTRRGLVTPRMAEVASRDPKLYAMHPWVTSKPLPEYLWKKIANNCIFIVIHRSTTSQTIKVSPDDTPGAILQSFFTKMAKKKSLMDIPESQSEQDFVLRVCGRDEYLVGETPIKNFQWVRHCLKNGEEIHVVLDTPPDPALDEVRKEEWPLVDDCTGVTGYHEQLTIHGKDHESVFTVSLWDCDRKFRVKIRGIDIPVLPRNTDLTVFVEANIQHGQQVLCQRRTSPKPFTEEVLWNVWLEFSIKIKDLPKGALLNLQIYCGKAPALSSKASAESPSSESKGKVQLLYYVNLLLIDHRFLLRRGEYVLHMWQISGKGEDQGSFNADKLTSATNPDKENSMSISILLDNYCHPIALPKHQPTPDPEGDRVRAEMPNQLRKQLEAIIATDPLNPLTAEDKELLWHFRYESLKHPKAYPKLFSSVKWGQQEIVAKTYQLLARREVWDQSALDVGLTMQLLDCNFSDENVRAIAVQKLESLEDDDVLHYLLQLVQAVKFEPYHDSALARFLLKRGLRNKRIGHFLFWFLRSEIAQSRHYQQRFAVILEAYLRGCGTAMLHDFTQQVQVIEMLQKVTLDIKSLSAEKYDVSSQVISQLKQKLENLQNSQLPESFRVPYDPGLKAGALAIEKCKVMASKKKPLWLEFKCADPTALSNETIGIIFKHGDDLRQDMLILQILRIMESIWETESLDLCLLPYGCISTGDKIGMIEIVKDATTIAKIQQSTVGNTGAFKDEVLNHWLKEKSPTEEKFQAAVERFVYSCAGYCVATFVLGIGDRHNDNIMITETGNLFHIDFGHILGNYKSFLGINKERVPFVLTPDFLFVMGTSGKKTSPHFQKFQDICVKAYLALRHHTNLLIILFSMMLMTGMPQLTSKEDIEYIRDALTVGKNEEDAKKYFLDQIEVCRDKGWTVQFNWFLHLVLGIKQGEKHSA

Compound | IC50 [1] [nM] | IC50 [2] [nM] | IC50 [3] [nM] | IC50 [4] [nM] | IC50 [5] [nM]
C[C@H](NC(=O)c1nc(-c2cccc(NS(C)(=O)=O)c2)cnc1N)c1cc2cccc(Cl)c2c(=O)n1C | < 100 | 100 to 1000 | 100 to 1000 | < 100 | < 100
C[C@H](NC(=O)c1nc(C#N)cnc1N)c1cc2cccc(Cl)c2c(=O)n1-c1ccccc1 | 100 to 1000 | ≥ 10000 | 100 to 1000 | 100 to 1000 | < 100
C[C@H](NC(=O)c1nc(-c2cccc(S(C)(=O)=O)c2)c(N)nc1N)c1cc2cccc(Cl)c2c(=O)n1-c1ccccc1 | < 100 | < 100 | 100 to 1000 | < 100 | < 100
C[C@H](NC(=O)c1c(N)nn2ccc(-c3cccc(S(C)(=O)=O)c3)nc12)c1cc2cccc(Cl)c2c(=O)n1-c1ccccc1 | < 100 | < 100 | < 100 | < 100 | < 100
C[C@H](NC(=O)c1c(N)nn2cccnc12)c1cc2cccc(C#CCNC(=O)[C@@H]3CCC(=O)O3)c2c(=O)n1-c1ccccc1 | 100 to 1000 | 100 to 1000 | 100 to 1000 | < 100 | < 100
C#Cc1cccc2cc([C@H](C)NC(=O)c3c(N)nn4cccnc34)n(-c3ccccc3)c(=O)c12 | 100 to 1000 | 100 to 1000 | 100 to 1000 | < 100 | < 100
C[C@H](NC(=O)c1c(N)nn2cccnc12)c1cc2cccc(Cl)c2c(=O)n1C1CC1 | < 100 | 100 to 1000 | 100 to 1000 | 100 to 1000 | < 100
C[C@H](NC(=O)c1c(N)nn2cccnc12)c1cc2cccc(-c3ccc(=O)n(C)c3)c2c(=O)n1-c1ccccc1 | ≥ 10000 | ≥ 10000 | 100 to 1000 | < 100 | < 100
CC(=O)N(C)Cc1cccc2cc([C@H](C)NC(=O)c3c(N)nn4cccnc34)n(-c3ccccc3)c(=O)c12 | ≥ 10000 | ≥ 10000 | < 100 | ≥ 10000 | –
C[C@H](NC(=O)c1c(N)nn2cccnc12)c1cc2cccc(CN(C)C)c2c(=O)n1-c1ccccc1 | ≥ 10000 | ≥ 10000 | < 100 | ≥ 10000 | –
C[C@H](NC(=O)c1nc(-c2cccc(S(=O)(=O)N3CCOCC3)c2)cnc1N)c1cc2cccc(Cl)c2c(=O)n1-c1ccccc1 | ≥ 10000 | ≥ 10000 | ≥ 10000 | ≥ 10000 | –
C[C@H](NC(=O)c1c(N)nn2cccnc12)c1cc2cccc(NC3CCCCC3)c2c(=O)n1-c1ccccc1 | ≥ 10000 | ≥ 10000 | ≥ 10000 | ≥ 10000 | –
C[C@H](NC(=O)c1c(N)nn2c1NCCC2)c1cc2cccc(Cl)c2c(=O)n1-c1ccccc1 | ≥ 10000 | ≥ 10000 | ≥ 10000 | ≥ 10000 | –
CC(=O)Nc1ncc(-c2cccc(NS(C)(=O)=O)c2)nc1C(=O)N[C@@H](C)c1cc2cccc(Cl)c2c(=O)n1C | ≥ 10000 | ≥ 10000 | ≥ 10000 | ≥ 10000 | –
COc1cc(-c2csc3cc([C@H](C)NC(=O)c4c(N)nn5cccnc45)n(-c4ccccc4)c(=O)c23)ccn1 | ≥ 10000 | ≥ 10000 | ≥ 10000 | ≥ 10000 | –
Nc1nn2cccnc2c1C(=O)NCc1cc2cccc(Cl)c2c(=O)n1-c1ccccc1 | ≥ 10000 | ≥ 10000 | ≥ 10000 | ≥ 10000 | –
C[C@H](NC(=O)c1nc(-c2cncc(NS(C)(=O)=O)c2)cnc1N)c1cc2cccc(Cl)c2c(=O)n1-c1ccccc1 | < 100 | 100 to 1000 | 100 to 1000 | < 100 | 100 to 1000
C[C@H](NC(=O)c1c(N)nn2cccnc12)c1nn2ccc(Cl)c2c(=O)n1-c1ccccc1 | ≥ 10000 | ≥ 10000 | ≥ 10000 | ≥ 10000 | –
C[C@H](NC(=O)c1nc(-c2cncc(NS(C)(=O)=O)c2)cnc1N)c1cc2cccc(Cl)c2c(=O)n1C1CC1 | < 100 | < 100 | < 100 | < 100 | –
C[C@H](NC(=O)c1nc(-c2cccc(S(=O)(=O)NC3CC3)c2)cnc1N)c1cc2cccc(Cl)c2c(=O)n1C | < 100 | 100 to 1000 | 100 to 1000 | < 100 | < 100
C[C@H](NC(=O)c1nccnc1N)c1cc2cccc(Cl)c2c(=O)n1-c1ccc(F)cc1 | 100 to 1000 | ≥ 10000 | 100 to 1000 | 100 to 1000 | < 100
C[C@H](NC(=O)c1c(N)nn2cccnc12)c1cc2cccc(Cl)c2c(=O)n1CCN(C)S(C)(=O)=O | 100 to 1000 | 100 to 1000 | 100 to 1000 | < 100 | < 100
